Measurements: publication PMC11855478, “Bicyclic N,S-Acetals Containing Fused Cysteine-Amide System as New Heterocyclic Class Targeting Human Farnesyltransferase (FTase-h)” (International Journal of Molecular Sciences, 2025)

Tests used:
Assay type in all cases: cell-based, human
[1] = tested on: UO-31 renal cancer cells; test: NCI one dose, UO-31; conditions: UO-31, 1.00E-5 Molar one dose
Method: (§1) 3.4. Cell Proliferation Assay
(§2) Selected compounds were tested on a panel of 60 human cancer cell lines at the National Cancer Institute (NCI), Germantown, MD, USA. The cytotoxicity studies were conducted using a 48 h exposure protocol using the sulfo-rhodamine B assay.

[2] = tested on: SNB-75 (CNS Cancer); test: NCI one dose, SNB-75; conditions: SNB-75, 1.00E-5 Molar one dose
Method: as §1, §2

[3] = tested on: RPMI-8226 (Leukemia); test: NCI one dose, RPMI-8226; conditions: RPMI-8226, 1.00E-5 Molar one dose
Method: as §1, §2

[4] = tested on: MDA-MB-231/ATCC (Breast Cancer); test: NCI one dose, MDA-MB-231/ATCC; conditions: 1.00E-5 Molar one dose
Method: as §1, §2

[5] = tested on: RXF 393 (Renal Cancer); test: NCI one dose, RXF 393; conditions: RXF 393, 1.00E-5 Molar one dose
Method: as §1, §2

[6] = tested on: M14 (Melanoma); test: NCI one dose, M14; conditions: M14, 1.00E-5 Molar one dose
Method: as §1, §2

[7] = tested on: A498 (Renal Cancer); test: NCI one dose, A498; conditions: A498, 1.00E-5 Molar one dose
Method: as §1, §2

[8] = tested on: IGROV1 (Ovarian Cancer); test: NCI one dose, IGROV1; conditions: IGROV1, 1.00E-5 Molar one dose
Method: as §1, §2

[9] = tested on: HOP-92 (Non-Small Cell Lung Cancer); test: NCI one dose, HOP-92; conditions: HOP-92, 1.00E-5 Molar one dose
Method: as §1, §2

[10] = tested on: MDA-MB-435 (Melanoma); test: NCI one dose, MDA-MB-435; conditions: MDA-MB-435, 1.00E-5 Molar one dose
Method: as §1, §2

[11] = tested on: A549/ATCC (Non-Small Cell Lung Cancer); test: NCI one dose, A549/ATCC; conditions: 1.00E-5 Molar one dose
Method: as §1, §2

[12] = tested on: CAKI-1 (Renal Cancer); test: NCI one dose, CAKI-1; conditions: CAKI-1, 1.00E-5 Molar one dose
Method: as §1, §2

[13] = tested on: PC-3 (Prostate Cancer); test: NCI one dose, PC-3; conditions: PC-3, 1.00E-5 Molar one dose
Method: as §1, §2

[14] = tested on: MALME-3M (Melanoma); test: NCI one dose, MALME-3M; conditions: 1.00E-5 Molar one dose
Method: as §1, §2

[15] = tested on: SF-295 (CNS Cancer); test: NCI one dose, SF-295; conditions: SF-295, 1.00E-5 Molar one dose
Method: as §1, §2

[16] = tested on: T-47D (Breast Cancer); test: NCI one dose, T-47D; conditions: 1.00E-5 Molar one dose
Method: as §1, §2

[17] = tested on: OVCAR-4 (Ovarian Cancer); test: NCI one dose, OVCAR-4; conditions: OVCAR-4, 1.00E-5 Molar one dose
Method: as §1, §2

[18] = tested on: HCT-116 (Colon Cancer); test: NCI one dose, HCT-116; conditions: HCT-116, 1.00E-5 Molar one dose
Method: as §1, §2

[19] = tested on: NCI/ADR-RES (Ovarian Cancer); test: NCI one dose, NCI/ADR-RES; conditions: 1.00E-5 Molar one dose
Method: as §1, §2

[20] = tested on: NCI-H23 (Non-Small Cell Lung Cancer); test: NCI one dose, NCI-H23; conditions: NCI-H23, 1.00E-5 Molar one dose
Method: as §1, §2

[21] = tested on: MCF7 (Breast Cancer); test: NCI one dose, MCF7; conditions: MCF7, 1.00E-5 Molar one dose
Method: as §1, §2

[22] = tested on: OVCAR-8 (Ovarian Cancer); test: NCI one dose, OVCAR-8; conditions: OVCAR-8, 1.00E-5 Molar one dose
Method: as §1, §2

[23] = tested on: LOX IMVI (Melanoma); test: NCI one dose, LOX IMVI; conditions: 1.00E-5 Molar one dose
Method: as §1, §2

[24] = tested on: K-562 leukaemia cells; test: NCI one dose, K-562; conditions: K-562, 1.00E-5 Molar one dose
Method: as §1, §2

[25] = tested on: HS 578T (Breast Cancer); test: NCI one dose, HS 578T; conditions: 1.00E-5 Molar one dose
Method: as §1, §2

[26] = tested on: SR (Leukemia); test: NCI one dose, SR; conditions: 1.00E-5 Molar one dose
Method: as §1, §2

[27] = tested on: SK-MEL-28 (Melanoma); test: NCI one dose, SK-MEL-28; conditions: SK-MEL-28, 1.00E-5 Molar one dose
Method: as §1, §2

[28] = tested on: CCRF-CEM (Leukemia); test: NCI one dose, CCRF-CEM; conditions: 1.00E-5 Molar one dose
Method: as §1, §2

[29] = tested on: SK-MEL-2 (Melanoma); test: NCI one dose, SK-MEL-2; conditions: SK-MEL-2, 1.00E-5 Molar one dose
Method: as §1, §2

[30] = tested on: KM12 (Colon Cancer); test: NCI one dose, KM12; conditions: KM12, 1.00E-5 Molar one dose
Method: as §1, §2

[31] = tested on: SW-620 (Colon Cancer); test: NCI one dose, SW-620; conditions: SW-620, 1.00E-5 Molar one dose
Method: as §1, §2

[32] = tested on: U251 (CNS Cancer); test: NCI one dose, U251; conditions: U251, 1.00E-5 Molar one dose
Method: as §1, §2

[33] = tested on: EKVX (Non-Small Cell Lung Cancer); test: NCI one dose, EKVX; conditions: 1.00E-5 Molar one dose
Method: as §1, §2

[34] = tested on: 786-0 (Renal Cancer); test: NCI one dose, 786-0; conditions: 786-0, 1.00E-5 Molar one dose
Method: as §1, §2

[35] = tested on: NCI-H322M (Non-Small Cell Lung Cancer); test: NCI one dose, NCI-H322M; conditions: 1.00E-5 Molar one dose
Method: as §1, §2

[36] = tested on: COLO 205 (Colon Cancer); test: NCI one dose, COLO 205; conditions: COLO 205, 1.00E-5 Molar one dose
Method: as §1, §2

[37] = tested on: SF-268 (CNS Cancer); test: NCI one dose, SF-268; conditions: SF-268, 1.00E-5 Molar one dose
Method: as §1, §2

[38] = tested on: DU-145 (Prostate Cancer); test: NCI one dose, DU-145; conditions: DU-145, 1.00E-5 Molar one dose
Method: as §1, §2

[39] = tested on: HCC-2998 (Colon Cancer); test: NCI one dose, HCC-2998; conditions: HCC-2998, 1.00E-5 Molar one dose
Method: as §1, §2

Row | SMILES | Growth Percent [1] [%] | Growth Percent [2] [%] | Growth Percent [3] [%] | Growth Percent [4] [%] | Growth Percent [5] [%] | Growth Percent [6] [%] | Growth Percent [7] [%] | Growth Percent [8] [%] | Growth Percent [9] [%] | Growth Percent [10] [%] | Growth Percent [11] [%] | Growth Percent [12] [%] | Growth Percent [13] [%] | Growth Percent [14] [%] | Growth Percent [15] [%] | Growth Percent [16] [%] | Growth Percent [17] [%] | Growth Percent [18] [%] | Growth Percent [19] [%] | Growth Percent [20] [%] | also measured
1 | COc1cccc(CNC(=O)[C@@H]2CS[C@H]3c4ccccc4C(=O)N23)c1 [4aE] | 97.14 | 100.11 | 101.67 | 107.16 | 101.84 | 107.40 | 92.71 | 109.07 | 99.32 | 107.01 | 83.51 | 96.42 | 98.06 | 107.90 | 99.74 | 103.32 | 112.11 | 102.32 | 106.48 | 99.84 | Growth Percent [21]: 98.52%; Growth Percent [22]: 100.28%; Growth Percent [23]: 102.67%; Growth Percent [24]: 85.13%; Growth Percent [25]: 98.68%; Growth Percent [26]: 84.95%; Growth Percent [27]: 113.63%; Growth Percent [28]: 102.31%; Growth Percent [29]: 95.73%; Growth Percent [30]: 100.40%; Growth Percent [31]: 108.22%; Growth Percent [32]: 102.42%; Growth Percent [33]: 111.45%; Growth Percent [34]: 102.72%; Growth Percent [35]: 105.81%; Growth Percent [36]: 112.81%; Growth Percent [37]: 100.53%; Growth Percent [38]: 104.21%; Growth Percent [39]: 98.50%
2 | C[C@@]12SC[C@@H](C(=O)NCc3ccc(Cl)cc3Cl)N1C(=O)c1ccccc12 [4bH] | 86.15 | 99.75 | 86.31 | 99.81 | 102.82 | 108.31 | 77.10 | 100.21 | 106.23 | 102.36 | 77.42 | 86.12 | 78.16 | 108.23 | 98.60 | 79.65 | 93.22 | 96.09 | 96.56 | 94.51 | Growth Percent [21]: 89.35%; Growth Percent [22]: 93.06%; Growth Percent [23]: 101.94%; Growth Percent [24]: 79.34%; Growth Percent [25]: 91.90%; Growth Percent [26]: 88.00%; Growth Percent [27]: 108.92%; Growth Percent [28]: 84.65%; Growth Percent [29]: 92.79%; Growth Percent [30]: 101.11%; Growth Percent [31]: 104.06%; Growth Percent [32]: 90.46%; Growth Percent [33]: 112.50%; Growth Percent [34]: 103.58%; Growth Percent [35]: 92.74%; Growth Percent [36]: 109.32%; Growth Percent [37]: 99.59%; Growth Percent [38]: 109.42%; Growth Percent [39]: 99.28%
3 | COc1ccccc1CNC(=O)[C@@H]1CS[C@@]2(C)c3ccccc3C(=O)N12 [4bG] | 94.50 | 96.63 | 96.98 | 98.66 | 105.28 | 100.11 | 93.00 | 107.94 | 98.11 | 103.94 | 78.33 | 90.92 | 98.65 | 100.10 | 99.22 | 98.35 | 95.75 | 99.72 | 102.18 | 103.28 | Growth Percent [21]: 92.90%; Growth Percent [22]: 95.21%; Growth Percent [23]: 98.70%; Growth Percent [24]: 85.09%; Growth Percent [25]: 95.65%; Growth Percent [26]: 82.72%; Growth Percent [27]: 109.27%; Growth Percent [28]: 98.16%; Growth Percent [29]: 98.59%; Growth Percent [30]: 103.74%; Growth Percent [31]: 104.41%; Growth Percent [32]: 94.53%; Growth Percent [33]: 102.57%; Growth Percent [34]: 104.93%; Growth Percent [35]: 100.27%; Growth Percent [36]: 105.75%; Growth Percent [37]: 105.82%; Growth Percent [38]: 107.06%; Growth Percent [39]: 108.79%
4 | C[C@@]12SC[C@@H](C(=O)NCc3ccccc3Br)N1C(=O)c1ccccc12 [4bB] | 86.71 | 92.47 | 91.24 | 97.39 | 96.88 | 107.44 | 75.85 | 97.21 | 88.23 | 96.92 | 77.15 | 79.18 | 78.76 | 97.54 | 92.26 | 83.93 | 80.04 | 104.70 | 94.45 | 91.89 | Growth Percent [21]: 87.26%; Growth Percent [22]: 92.33%; Growth Percent [23]: 97.04%; Growth Percent [24]: 80.28%; Growth Percent [25]: 91.10%; Growth Percent [26]: 80.60%; Growth Percent [27]: 104.28%; Growth Percent [28]: 88.50%; Growth Percent [29]: 85.75%; Growth Percent [30]: 100.14%; Growth Percent [31]: 103.50%; Growth Percent [32]: 91.25%; Growth Percent [33]: 106.14%; Growth Percent [34]: 101.65%; Growth Percent [35]: 99.70%; Growth Percent [36]: 111.70%; Growth Percent [37]: 96.91%; Growth Percent [38]: 101.37%; Growth Percent [39]: 97.16%
